Data set [1] has as its system hESC and hiPSC derived photoreceptors. As to the kind of experiment: Calcium imaging (Fura-2) of cGMP response. It is filed as cell-based, human. The settings on record: for effect on cGMP-mediated increase in Ca2+ influx: cobalt chloride and magnesium chloride together in the perfusate with cGMP. An excerpt:
In order to determine whether developing photoreceptors contained the machinery necessary for transduction, the inventors plated differentiating EBs onto poly-L-ornithine and laminin-coated 6 well plates for 15 days prior to optical recording using calcium imaging. Membrane disks in the outer segment of native photoreceptors contain a photopigment (for example the rod-specific pigment rhodopsin consists of opsin+retinal), and the cell membrane in outer segments contains cyclic guanosine monophosphate (cGMP)-gated cationic (sodium and calcium) channels. In the dark, cGMP levels are high and the photoreceptors are maintained in a depolarised state via influx of Na^+ and Ca^2+ through these cGMP-gated channels which are in an open state. Exposure to light causes the retinal part of the photopigment to isomerise to trans-retinal, leading to activation of multiple G-proteins and phosphodiesterase 6 which in turns degrades cGMP, resulting in closure of the channels and membrane hyperpolarisation. To test if the hESC and hiPSC derived photoreceptors respond in a similar manner, on day 30, 45 and 60 of differentiation, cells were exposed to flashes of red, green, blue or white light, or to membrane-permeable 8-br-cGMP. As 8-br-cGMP opens the cationic (Na^+ and Ca^2+) channel associated with phototransduction, it triggers a Ca^2+ influx in photoreceptors known as the inward dark current. Loading cells with the fluorescent Ca^2+ indicator Fura-2 therefore enables the visualisation of changes in intracellular calcium associated with opening or closing of the cGMP-gated channel, with a decrease in fluorescence representing an increase in calcium influx.
EBs were dark adapted for 24 hours prior to recording then loaded with Fura-2 AM (10 μM, Molecular probes/Invitrogen) for 45 min at 37° C. (95% O2/5% CO2) followed by perfusion (1 ml/minute) with oxygenated artificial Cerebrospinal Fluid (aCSF; 118 mM NaCl, 25 mM NaHCO3, 1 mM NaH2PO4, 3 mM KCl, 1 mM MgCl2, 2 mM CaCl2, 10 mM glucose) for one hour. Cells were exposed to 8-br-cGMP (cGMP, 1 mM, Sigma) in aCSF. Control recordings were performed with aCSF alone or with 8-br-cGMP in CaCl2-free aCSF supplemented with calcium channel blocker Cobalt (II) chloride (CoCl2, 4 mM, AnalaR) and 10 mM HEPES. Fluorescence was monitored using an inverted Olympus IX71 microscope and images (excitation 380 nm, 800 ms exposure) acquired using a Quantem 512SC camera (Photometrics) and MetaMorph Software (Molecular Devices). For each stimulation 20 seconds baseline activity was recorded. Fluorescence change was analysed using the formula % Δl/lo=(l1−lo)×100/lo, where lo was the average cellular fluorescence during baseline activity and l1 following stimulation. Significance was determined using a student's t-test (P<0.01).

The target of the next data set is T1, IGF-IR (Homo sapiens, UniProt P08069).
T1 construct: endogenous in cells; host or cells: hESC (line H9, WiCell)-derived embryoid bodies
T1 sequence (P08069 31-1367): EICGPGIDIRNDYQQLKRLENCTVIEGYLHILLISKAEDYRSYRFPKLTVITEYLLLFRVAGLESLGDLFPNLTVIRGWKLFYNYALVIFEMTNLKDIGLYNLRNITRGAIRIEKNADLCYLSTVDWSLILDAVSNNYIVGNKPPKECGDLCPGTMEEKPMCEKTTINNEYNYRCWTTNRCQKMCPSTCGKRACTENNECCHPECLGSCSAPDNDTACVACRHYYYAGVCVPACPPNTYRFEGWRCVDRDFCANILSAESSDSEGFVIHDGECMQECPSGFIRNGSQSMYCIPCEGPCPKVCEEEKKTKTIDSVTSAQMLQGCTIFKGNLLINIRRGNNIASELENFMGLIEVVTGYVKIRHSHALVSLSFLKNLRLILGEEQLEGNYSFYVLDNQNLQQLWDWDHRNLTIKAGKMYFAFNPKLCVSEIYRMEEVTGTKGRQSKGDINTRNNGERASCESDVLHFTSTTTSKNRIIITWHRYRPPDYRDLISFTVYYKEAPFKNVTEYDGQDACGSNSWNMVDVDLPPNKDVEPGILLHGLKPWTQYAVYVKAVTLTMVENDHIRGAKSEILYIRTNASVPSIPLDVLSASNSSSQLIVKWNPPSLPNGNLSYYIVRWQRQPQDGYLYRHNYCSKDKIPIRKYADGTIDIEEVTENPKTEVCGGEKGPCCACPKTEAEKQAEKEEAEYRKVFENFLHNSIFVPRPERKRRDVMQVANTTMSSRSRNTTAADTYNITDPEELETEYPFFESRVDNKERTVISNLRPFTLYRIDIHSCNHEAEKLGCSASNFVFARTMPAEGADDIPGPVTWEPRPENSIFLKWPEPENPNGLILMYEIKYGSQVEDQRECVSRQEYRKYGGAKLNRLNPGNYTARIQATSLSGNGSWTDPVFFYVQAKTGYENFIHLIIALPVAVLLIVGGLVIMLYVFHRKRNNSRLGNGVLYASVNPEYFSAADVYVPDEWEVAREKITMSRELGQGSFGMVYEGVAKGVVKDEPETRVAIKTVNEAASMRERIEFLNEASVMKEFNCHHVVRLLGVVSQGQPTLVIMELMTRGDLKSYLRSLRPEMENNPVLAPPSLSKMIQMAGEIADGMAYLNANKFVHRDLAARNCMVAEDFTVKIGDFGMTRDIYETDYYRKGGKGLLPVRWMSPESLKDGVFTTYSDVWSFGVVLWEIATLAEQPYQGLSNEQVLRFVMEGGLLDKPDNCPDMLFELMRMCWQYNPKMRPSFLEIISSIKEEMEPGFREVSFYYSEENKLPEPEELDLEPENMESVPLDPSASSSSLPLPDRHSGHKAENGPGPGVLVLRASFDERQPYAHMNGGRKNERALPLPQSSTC
As to the kind of experiment: IGF-1 receptor signalling interference: optic vesicle/optic cup formation and survival of EBs. It is filed as cell-based. The settings on record: for optic vesicle production from differentiating EBs: 7 μM. The protocol:
To confirm the contribution of the IGF-1 signalling pathway in this process, the inventors differentiated cells in the presence of a pharmacological inhibitor of the IGF-IR (pi(IR)) or a neutralising antibody directed against the IGF-II receptor, IGF-IIR ((n)IIR), in the presence (+) or absence (−) of IGF-1 supplementation (FIG. 5I, J).
hESCs were expanded and differentiated as described. For interference of IGF-1 receptor signalling an IGF-IR-specific pharmacological inhibitor ([7 μM], AG1024, Stratech) was added to differentiation media for the entire differentiation period. To block/neutralise IGF-II receptor signalling, media was supplemented with goat IgG anti-human IGF-IIR antibody ([0.25 μg/ml], AF2447, R&D) throughout differentiation.

Another data set relates to differentiating hESCs. As to the kind of experiment: Optic vesicle and optic cup formation from EBs differentiated in 3D with IGF-1. The format is cell-based, human. The procedure: hESC (line H9, WiCell) and hiPSC lines Clone 4^25 and NHDF^26 were expanded and differentiated as previously described.^14 For IGF-1 treatment, cultures were differentiated in VNIM media^14 supplemented with recombinant human IGF-1 (5 ng/ml, Sigma) until day 37, then in basal Knockout serum-free media^14 with 10 ng/ml IGF-1 until day 90 (FIG. 1A). Control cultures were differentiated in parallel in the absence of IGF-1. Time-lapse capture of culture morphology was achieved using a BioStation CT (Nikon).

Data set [2] has as its system human pluripotent stem cells. As to the kind of experiment: Modified differentiation media, mTeSR1 feeder-free adapted cells: optic cup formation. The settings on record: 2 and 3 fold increase in IGF-1 concentration, FIG. 15. The format is cell-based. The procedure: Human pluripotent stem cells were grown under feeder free conditions the effect of freeder free conditions on their differentiation potential to synthetic retina investigated.
mTeSR1 media (Stem Cell Technologies) is a highly specialised serum-free and complete media designed for feeder-free culture. Cells to this feeder-free technique and subjected to differentiation studies using the IGF-1 factor as discussed above.

Where only a bound is given, the exact number is not on record here.

With `Nc1nc2c(nc(Br)n2[C@@H]2O[C@@H]3COP(=O)(O)O[C@H]3[C@H]2O)c(=O)[nH]1` [8-br-cGMP], the “Fura-2 fluorescence change (Ca2+ influx)” value in data set [1] (IGF-1 treated cultures, 1 mM in aCSF) is recorded as “decreased fluorescence”.
For `CC(C)(C)c1cc(C=C(C#N)C#N)cc(Br)c1O` [(pi)IR], the viability of cultures entry on IGF-IR (after day 45, with and without exogenous IGF-1) is “did not remain viable”. Besides, at IGF-IR (day 45), the optic cups entry is “undetectable”. Also, the “optic vesicle production from differentiating EBs” value on IGF-IR (day 45, absence of IGF-1 ((pi)IR-), p=0.021) is reported as “significantly reduced”; at IGF-IR (day 45, presence of IGF-1 ((pi)IR+), p=0.023) it was “significantly reduced”. Also, on IGF-IR (days of differentiation, with and without IGF-1), the “survival of EBs” value is recorded as not above 50 days.
Regarding `[Cl-].[Cl-].[Co+2]` [cobalt chloride, Cobalt (II) chloride], the “effect on cGMP-mediated increase in Ca2+ influx” value in data set [1] was “abolished”.
For the compound `[Cl-].[Cl-].[Mg+2]` [magnesium chloride], the “effect on cGMP-mediated increase in Ca2+ influx” value in data set [1] was “abolished”.
“IGF-1: recombinant human IGF-1 (Sigma), single-chain 70-amino-acid protein, SEQ ID NO:1”: the “frequency of optic vesicle formation” value with differentiating hESCs (IGF-1 in differentiation media vs control, FIG. 5I) is recorded as “significantly increased”. Further, the “optic vesicle formation relative to control levels” value in the data set with differentiating hESCs (by day 15) was “double”. Besides, the “increase in optic vesicle and optic cup formation vs control” value in the data set with differentiating hESCs (by day 60) turned out to be 4 fold. Besides, the “EBs with optic cup formation” value in the data set with differentiating hESCs (day 60, FIG. 5J, control 3.9%) amounted to 17.4%. In addition, the “formation of optic cups on increasing concentration” value in data set [2] is given as “did not cause any significant changes”. In addition, the cGMP respondent cultures in data set [1] (by day 90, 8-br-cGMP stimulation) came to 45.3%; in data set [1] (day 45 of differentiation, 8-br-cGMP stimulation), 24.1%.

The values are drawn from patent US10982188B2, “Synthetic retina” (University of Newcastle Upon Tyne, priority 2014, dated 2021).
